This is an account of results in ChEMBL document CHEMBL5316359, “Strophioblachins A-K, Structurally Intriguing Diterpenoids from Strophioblachia fimbricalyx with Potential Anticardiac Hypertrophic Inhibitory Activity” (J Nat Prod, 2023).

Structures are written as SMILES. Active and inactive are the calls of the source. The rule behind the calls is not given here.

The subject of data set [1] is Cardiac muscle cell. Put plainly: Anticardiac hypertrophic activity in phenylephrine-induced hypertrophy in neonatal Sprague-Dawley rat cardiomyocyte assessed as decrease in NPPA mRNA expression at 5 to 50 uM preincubated for 12 hrs followed by phenylephrine stimulation and measured after 48 hrs by qRT-PCR analysis. The data set is classed as functional, cell-based. Conditions: dose 5-50 µM, time 60.0 hrs.

Data set [2] has as its system Cardiac muscle cell. In words: Anticardiac hypertrophic activity in phenylephrine-induced hypertrophy in neonatal Sprague-Dawley rat cardiomyocyte assessed as decrease in ANP protein expression at 5 to 50 uM preincubated for 12 hrs followed by phenylephrine stimulation and measured after 48 hrs by Western blot analysis. Conditions: dose 5-50 µM, time 60.0 hrs. The data set is classed as functional, cell-based.

Data set [3] can be described thus: Cytotoxicity against neonatal Sprague-Dawley rat cardiomyocyte assessed as reduction in ANP expression incubated for 48 hrs by ELISA assay. The data set is classed as toxicity, cell-based, Cardiac muscle cell. Conditions: neonatal rat cardiomyocytes.
Data set [4] relates to Cardiac muscle cell. In words: Anticardiac hypertrophic activity in phenylephrine-induced hypertrophy in neonatal Sprague-Dawley rat cardiomyocyte assessed as decrease in NPPB mRNA expression at 5 to 50 uM preincubated for 12 hrs followed by phenylephrine stimulation and measured after 48 hrs by qRT-PCR analysis. The data set is classed as functional, cell-based. Conditions: dose 5-50 µM, time 60.0 hrs.

`COC(=O)c1cc2c(cc1OC)[C@]1(C)CCC(=O)C(C)(C)C1=C(O)C2=O`: the Activity entry with Cardiac muscle cell [1] and in the data set on Cardiac muscle cell [4] was “Dose-Dependent Effect” each time. Also, the outcome in the data set with Cardiac muscle cell [2] was Active. In addition, the IC50 at 48 h in data set [3] was 52.3 µM.

In the case of `C=C[C@@]12C=C(C)C(=O)C=C1[C@]1(C)CC[C@@H](O)C(C)(C)[C@H]1CC2`, the Activity entry in the data set on Cardiac muscle cell [1] and in the data set with Cardiac muscle cell [4] was “Dose-Dependent Effect” each time. In addition, the result in the data set with Cardiac muscle cell [2] was Active. Further, the IC50 at 48 h in data set [3] was found to be 41.8 µM.
